According to patent US11850235B2, “Preventative effect of mebendazole against malignancies in neurofibromatosis” (priority 2021, dated 2023):

Tests used:
sNF96.2 cells = test: Cell proliferation assay (Cell Counting Kit-8), sNF96.2; format: cell-based; settings: Homo sapiens, 72 h
Protocol: (§1) The human NF1-associated MPNST cell line NF90.8 was privately provided and sNF96.2 was purchased from the American Type Culture Collection. […] These cell lines were not authenticated. All cells were tested and found free of mycoplasma contamination. A cell proliferation assay was performed using Cell Counting Kit-8. Cells in 100 μL media in a 96-well plate were incubated with 10 μL of WST-8, a tetrazolium salt, at 37° C. in a tissue culture incubator. Absorbance was measured at 450 nm. Half maximal inhibitory concentrations (IC50s) were determined by incubating cells at a range of concentrations for 72 h and were calculated using the log (inhibitor) vs. response function and non-linear fit. Human MPNST cells NF90-8 and sNF96.2, both derived from NF1 patients, were treated with various MBZ concentrations for 72 h. […] Because NF1-associated tumors are mainly driven by Ras hyperactivation, MBZ's ability to inhibit Ras activity in the NF90-8 cell line was studied by exposing NF90-8 cells to different concentrations of MBZ (0.2 and 1 μM) for 24 h. […] This confirmed the Ras inhibitory effect of MBZ in vitro.

[1] = tested on: NPcis (cis Nf1+/-; Tp53+/-) mice; test: Chemoprevention in NPcis mice (tumor onset, survival, cause of death); format: in vivo; settings: for effect on survival of non-solid malignancy-related and unknown causes of death / effect on overall median survival vs controls / overall median survival: NPcis mice; for effect on survival of non-solid malignancy-related and unknown causes of death: male and female; for effect on overall median survival vs controls: treatment from day 60; for overall median survival: MBZ 195 mg/kg feed, CXB 1000 ppm feed, SUL 160 ppm drinking water; for increase in median survival: 195 mg/kg feed
Excerpt: NPcis (cis Nf1+/−; Tp53+/−) mice in C57BL/6 background (B6;129S2-Trp53tm1Tyj Nf1tm1Tyj/J) were bred by pairing male heterozygous NPcis mice with the female wildtype mice to better generate MPNST animals. Since homozygous Nf1/Tp53 KO mice are embryonically lethal, only heterozygous and wildtype pups were born. Like NF1 patients, NPcis mice spontaneously develop predominantly soft tissue sarcomas including MPNSTs (genetically engineered murine (GEM) PNSTs) and malignant Triton tumors, as well as rhabdomyosarcomas and astrocytomas that severely limit their life expectancy to ˜5 months. The addition of heterozygous Tp53 knock-out (KO) accelerates the cancer development, which mimics the secondary mutations required for the transformation to malignancies such as MPNST, where the second copy of Nf1 is also lost due to the loss of heterozygosity (LOH).
(§2) At day 60 after birth, heterozygous mice were started on the medicated feed or water. The mouse diet consisting of 45 kcal % fat containing soybean oil and lard for fat was used as the control feed. […] Sulindac was added to drinking water at 160 ppm (0.5 mg/day) in 4 mM sodium phosphate buffer as previously described. Animals were palpated weekly for tumors and survival and cause of death were recorded.
In order to investigate the tumor-preventative effects of MBZ, continuous oral administration of MBZ via 195 mg/kg feed was initiated at 60 days after birth, before the formation of any malignancies. Mice were palpated weekly for the presence of any tumors. For the purpose of this study, ‘Solid Malignancies’ were defined as any type of sarcoma and astrocytoma, in addition to neuroblastomas and carcinomas, while ‘Others’ included non-solid malignancies such as lymphomas, leukemias and unknown causes of death.

[2] = tested on: GTP-bound Ras in NF90-8 cells; test: Ras activity assay (Active Ras Detection Kit, GST-Raf1-RBD pull-down); format: cell-based, human; settings: 0.2 and 1 μM, 24 h
Protocol: A Ras activity assay was performed according to the manufacturer's instructions for the Active Ras Detection Kit. Briefly, cells were lysed with the Lysis/Binding/Wash buffer and pelleted, then the supernatant was used as the cell lysate. In the positive control, 5 μL of 10 mM GTPγS was added to 500 μL of lysates and incubated at 30° C. for 15 min. Cell lysates were incubated with glutathione resin, together with the purified GST-Raf1-RBD protein at 4° C. for 1 h in a spin cup. The resin was washed, and the bound proteins were eluted by incubating with dithiothreitol (DTT)-containing sample buffer at RT for 2 min. Eluted samples were heated and analyzed by anti-Ras Western blotting. Human MPNST cells NF90-8 and sNF96.2, both derived from NF1 patients, were treated with various MBZ concentrations for 72 h. […] Because NF1-associated tumors are mainly driven by Ras hyperactivation, MBZ's ability to inhibit Ras activity in the NF90-8 cell line was studied by exposing NF90-8 cells to different concentrations of MBZ (0.2 and 1 μM) for 24 h. […] This confirmed the Ras inhibitory effect of MBZ in vitro.

NF90-8 cells = test: Cell proliferation assay (Cell Counting Kit-8), NF90-8; format: cell-based; settings: Homo sapiens, 72 h
Protocol: as §1

[3] = Dose-dependent toxicity of medicated feed in NPcis mice; format: in vivo
Protocol: as §2
This range was calculated based on previously established maximal dose of 50 mg/kg MBZ via oral gavage and the estimated daily food intake of a mouse. Mice were weighed weekly and examined for signs of toxicity over 4 weeks.

pERK = test: Immunohistochemistry of pERK1/2 and ERK1/2 in tumors of NPcis mice; format: in vivo; settings: sarcomas of NPcis mice, 195 mg/kg diet
Protocol: Mouse tumors were first fixed by formalin and embedded in paraffin. For hematoxylin & eosin (H&E) staining, the section was de-paraffinized and stained by the standard hematoxylin and eosin procedure to visualize tissue structures. For immunostaining, rabbit anti-Erk1/2 and anti-pErk1/2 antibodies were used. Sections were de-paraffinized using a standard procedure and blocked using 1.9% H2O2 in methanol at room temperature for 10 min. Sections were heated at 100° C. for 20 min in the antigen retrieval citrate solution and blocked by the serum-free protein blocker for 5 min at room temperature. After incubation with the rabbit anti-Erk1/2 or anti-pErk1/2 antibody diluted at 1:50 overnight at 4° C., biotin-conjugated anti-rabbit IgG was applied for 20 min at room temperature, followed by washing and incubation with streptavidin peroxidase for 15 min at room temperature. Antibody binding was visualized by the 3,3′-Diaminobenzidine (DAB) chromogen system. Subsequently, sections were counterstained by hematoxylin. Immunohistochemistry (IHC) quantification of representative tumor tissue sections was carried out with open source software using JPEG files. Mean optical density (OD) was calculated as the log average (maximal intensity/mean intensity) after image processing with color deconvolution and background subtraction. […]

[4] = 195 mg/kg feed from day 60, solid malignancies, male and female combined

Row | SMILES | IC50 (sNF96.2 cells) [nM] | delay of tumor occurrence and median mortality vs control [1, 4] [days] | tumor occurrence and median mortality [1, 4] [days] | effect on survival of non-solid malignancy-related and unknown causes of death [1] | effect on overall median survival vs controls [1] | overall median survival [1] [days] | increase in median survival ([1]; female mice, solid malignancies) [days] | increase in median survival ([1]; male mice, solid malignancies) [days] | reduction in solid cancer-related causes of death ([1]; vs control NPcis mice) [%] | activated form of GTP-bound Ras [2] | IC50 (NF90-8 cells) [nM] | tolerability of long-term daily continuous administration ([3]; 195 mg/kg feed, started 60 days after birth, male and female) | signs of toxicity ([3]; 250 and 215 mg/kg diets, over 4 weeks) | weight loss ([3]; 250 and 215 mg/kg diets, over 4 weeks, male and female NPcis mice) | ERK staining, mean intensity (pERK) | pERK DAB staining, mean optical density (OD) (pERK; three tumor samples)
1 | COC(=O)Nc1nc2ccc(C(=O)c3ccccc3)cc2[nH]1 [MBZ, mebendazole] | 320 | 32 | 192 | did not affect | significantly increased | 199 | 14 | 34.5 | ~25 | reduced in MBZ-treated NF90-8 cells in a concentration-dependent manner | 180 | well tolerated | excessive toxicity | 10-15% | 0.07 | 0.02
2 | CC1=C(CC(=O)O)c2cc(F)ccc2/C1=C\c1ccc([S+](C)[O-])cc1 (stereo not shown) [SUL, sulindac] | – | – | – | neither SUL nor CXB had an effect | failed to demonstrate any effect | 171.5 | – | – | – | – | – | – | – | – | – | –
